According to ChEMBL document CHEMBL1155704, “Acetylated analogues of the microtubule-stabilizing agent discodermolide: preparation and biological activity” (J Nat Prod, 2001):

Test system: P388
Assay: Cytotoxicity against mouse P388 cells after 48 hrs by MTT assay
Type: functional, cell-based
Settings: P388, 48 h

SMILES | IC50
C=C/C=C\[C@H](C)[C@H](OC(N)=O)[C@@H](C)[C@H](O)[C@@H](C)C/C(C)=C\[C@H](C)[C@@H](OC(C)=O)[C@@H](C)/C=C\[C@@H](O)C[C@@H]1OC(=O)[C@H](C)[C@@H](OC(C)=O)[C@H]1C | 0.103 µM
C=C/C=C\[C@H](C)[C@H](OC(N)=O)[C@@H](C)[C@H](O)[C@@H](C)C/C(C)=C\[C@H](C)[C@@H](O)[C@@H](C)/C=C\[C@@H](O)C[C@@H]1OC(=O)[C@H](C)[C@@H](OC(C)=O)[C@H]1C | 0.0126 µM
C=C/C=C\[C@H](C)[C@H](OC(N)=O)[C@@H](C)[C@H](OC(C)=O)[C@@H](C)C/C(C)=C\[C@H](C)[C@@H](O)[C@@H](C)/C=C\[C@H](C[C@@H]1OC(=O)[C@H](C)[C@@H](OC(C)=O)[C@H]1C)OC(C)=O | > 6.92 µM
C=C/C=C\[C@H](C)[C@H](OC(N)=O)[C@@H](C)[C@H](OC(C)=O)[C@@H](C)C/C(C)=C\[C@H](C)[C@@H](O)[C@@H](C)/C=C\[C@@H](O)C[C@@H]1OC(=O)[C@H](C)[C@@H](OC(C)=O)[C@H]1C | 1.15 µM
C=C/C=C\[C@H](C)[C@H](OC(N)=O)[C@@H](C)[C@H](O)[C@@H](C)C/C(C)=C\[C@H](C)[C@@H](O)[C@@H](C)/C=C\[C@H](C[C@@H]1OC(=O)[C@H](C)[C@@H](O)[C@H]1C)OC(C)=O | 0.0039 µM
C=C/C=C\[C@H](C)[C@H](OC(N)=O)[C@@H](C)[C@H](O)[C@@H](C)C/C(C)=C\[C@H](C)[C@@H](OC(C)=O)[C@@H](C)/C=C\[C@H](C[C@@H]1OC(=O)[C@H](C)[C@@H](OC(C)=O)[C@H]1C)OC(C)=O | 0.166 µM
C=C/C=C\[C@H](C)[C@H](OC(N)=O)[C@@H](C)[C@H](O)[C@@H](C)C/C(C)=C\[C@H](C)[C@@H](O)[C@@H](C)/C=C\[C@H](C[C@@H]1OC(=O)[C@H](C)[C@@H](OC(C)=O)[C@H]1C)OC(C)=O | 0.00074 µM
C=C/C=C\[C@H](C)[C@H](OC(N)=O)[C@@H](C)[C@H](OC(C)=O)[C@@H](C)C/C(C)=C\[C@H](C)[C@@H](OC(C)=O)[C@@H](C)/C=C\[C@H](C[C@@H]1OC(=O)[C@H](C)[C@@H](OC(C)=O)[C@H]1C)OC(C)=O | 0.837 µM
